Experimental data published in US6384027B1, “Phthalocyanine analogs” (QinetiQ Limited, priority 1997, dated 2002).

Assay: Solubility in organic solvents
Assay type: physicochemical
Conditions: in solvents such as THF, toluene, cyclohexane and dichloromethane

solubility: good solubility
SMILES: CCCCCCCCc1ccc(CCCCCCCC)c2c1-c1nc-2nc2[nH]c(nc3nc(nc4[nH]c(n1)c1ccncc41)-c1c(CCCCCCCC)ccc(CCCCCCCC)c1-3)c1c(CCCCCCCC)ccc(CCCCCCCC)c21 [1a, 1,4,8,11,15,18-(hexaoctyl)tribenzo-3,4-pyridinoporphyrazine]
